According to US11912693B2, “Compounds for modulating S1P1 activity and methods of using the same” (TREVENA, INC., priority 2017, dated 2024):

How the values were obtained:
[1] = molecular target: T1, human sphingosine-1-phosphate receptor 1 (S1P1) (Homo sapiens (Human), UniProt P21453); test: β-Arrestin2 recruitment assay (PathHunter), S1P1 CHO-K1 cells; type: cell-based; details: for Emax: CHO-K1, read-out: hS1P1 B-arrestin2 SPAN
Method in brief: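 Enzyme-fragment complementation read-out: agonist-driven β-arrestin2 binding to ProLink-tagged human S1P1 in stable CHO-K1 cells restores β-galactosidase, measured 1 h at room temperature after a 60 min 37° C. compound incubation. Potency as pEC50, efficacy relative to fingolimod (SPAN).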
Target sequence in this assay (P21453 whole entry, looked up, the tested form may be a part): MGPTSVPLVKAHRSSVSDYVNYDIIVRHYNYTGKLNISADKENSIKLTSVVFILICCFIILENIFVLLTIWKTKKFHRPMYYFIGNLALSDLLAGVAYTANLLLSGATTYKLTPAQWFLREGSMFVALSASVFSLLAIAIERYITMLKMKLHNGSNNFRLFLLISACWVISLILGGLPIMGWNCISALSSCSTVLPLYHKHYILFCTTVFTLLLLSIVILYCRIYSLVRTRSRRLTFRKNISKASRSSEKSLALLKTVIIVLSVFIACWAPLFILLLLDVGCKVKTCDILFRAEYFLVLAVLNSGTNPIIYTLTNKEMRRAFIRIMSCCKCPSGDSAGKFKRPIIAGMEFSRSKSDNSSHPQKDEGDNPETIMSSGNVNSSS
Target sequence in this assay (P32121 whole entry partner, looked up, the tested form may be a part): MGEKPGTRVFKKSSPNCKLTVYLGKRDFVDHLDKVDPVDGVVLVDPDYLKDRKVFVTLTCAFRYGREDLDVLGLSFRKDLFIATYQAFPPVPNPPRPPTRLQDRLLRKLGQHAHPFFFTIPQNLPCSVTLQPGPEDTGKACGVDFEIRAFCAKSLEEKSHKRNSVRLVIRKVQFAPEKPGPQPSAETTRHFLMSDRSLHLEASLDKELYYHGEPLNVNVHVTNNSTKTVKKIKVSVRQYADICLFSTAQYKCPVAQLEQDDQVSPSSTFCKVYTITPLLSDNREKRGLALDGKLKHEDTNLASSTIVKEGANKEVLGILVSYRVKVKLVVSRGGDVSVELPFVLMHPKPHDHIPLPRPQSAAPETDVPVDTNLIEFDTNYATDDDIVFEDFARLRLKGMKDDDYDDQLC

[2] = molecular target: T1, human sphingosine-1-phosphate receptor 1 (S1P1); test: Inhibition of cAMP production (HTRF cAMP HiRange), S1P1 CHO-K1 cells; type: cell-based; details: for Emax: CHO-K1, read-out: hS1P1 cAMP SPAN
Method in brief: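 CHO-K1 cells stably co-expressing human S1P1 (C-terminal Prolink tag) and EA-β-arrestin2 were grown in AssayComplete Media 6 at 37° C. and 5% CO2, plated, and incubated overnight. Agonist-driven inhibition of intracellular cAMP was read by TR-FRET with the HTRF cAMP HiRange kit on a PheraStar reader. Potency is pEC50, and efficacy (SPAN) is normalized to fingolimod.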
Target sequence in this assay (P21453 whole entry, looked up, the tested form may be a part): as the sequence (P21453 whole entry, looked up, the tested form may be a part) above

[3] = efficacy (SPAN) normalized to fingolimod
[4] = β-arrestin2 recruitment, S1P1 CHO-K1 cells
[5] = inhibition of cAMP production, S1P1 CHO-K1 cells

CC(C)n1nnc2cc(-c3nc(-c4nccn4C)no3)ccc21 [Compound 569, 5-[3-(1-methyl-1H-imidazol-2-yl)-1,2,4-oxadiazol-5-yl]-1-(propan-2-yl)-1H-1,2,3-benzotriazole]
Emax [1, 3]: < 75% | hS1P1 B-arrestin2 pEC50 [1, 4]: <5 | Emax [2, 3]: > 75% | hS1P1 cAMP pEC50 [2, 5]: <6.5

CC(C)(O)Cn1nnc2cc(-c3nc(-c4cocn4)no3)ccc21 [Compound 570, 2-methyl-1-{5-[3-(1,3-oxazol-4-yl)-1,2,4-oxadiazol-5-yl]-1H-1,2,3-benzotriazol-1-yl}propan-2-ol]
Emax [1, 3]: < 75% | hS1P1 B-arrestin2 pEC50 [1, 4]: <5 | Emax [2, 3]: < 75% | hS1P1 cAMP pEC50 [2, 5]: <6.5

Cc1nc2cc(-c3nc(-c4ccc5c(c4)nnn5C(C)C)no3)ccc2[nH]1 [Compound 571, 5-[5-(2-methyl-1H-1,3-benzodiazol-5-yl)-1,2,4-oxadiazol-3-yl]-1-(propan-2-yl)-1H-1,2,3-benzotriazole]
hS1P1 B-arrestin2 pEC50 [1, 4]: >5 | hS1P1 cAMP pEC50 [2, 5]: >6.5

CC(C)Nc1ccc(-c2nnc(-c3ccc4c(c3)ncn4C)o2)cc1C#N [Compound 572, 5-[5-(1-methyl-1H-1,3-benzodiazol-5-yl)-1,3,4-oxadiazol-2-yl]-2-[(propan-2-yl)amino]benzonitrile]
hS1P1 B-arrestin2 pEC50 [1, 4]: <5 | hS1P1 cAMP pEC50 [2, 5]: <6.5

Cn1cnc2cc(-c3nnc(-c4ccc(NCC(F)F)c(C#N)c4)o3)ccc21 [Compound 573, 2-[(2,2-difluoroethyl)amino]-5-[5-(1-methyl-1H-1,3-benzodiazol-5-yl)-1,3,4-oxadiazol-2-yl]benzonitrile]
hS1P1 B-arrestin2 pEC50 [1, 4]: <5 | hS1P1 cAMP pEC50 [2, 5]: <6.5

CC(C)Nc1ccc(-c2nnc(-c3ccc4c(c3)ncn4CCO)o2)cc1C#N [Compound 574, 5-{5-[1-(2-hydroxyethyl)-1H-1,3-benzodiazol-5-yl]-1,3,4-oxadiazol-2-yl}-2-[(propan-2-yl)amino]benzonitrile]
hS1P1 B-arrestin2 pEC50 [1, 4]: <5 | hS1P1 cAMP pEC50 [2, 5]: <6.5

COc1ccccc1-c1nc(-c2ccc3c(c2)nnn3C(C)C)co1 [Compound 575, 5-[2-(2-methoxyphenyl)-1,3-oxazol-4-yl]-1-(propan-2-yl)-1H-1,2,3-benzotriazole]
Emax [1, 3]: > 75% | hS1P1 B-arrestin2 pEC50 [1, 4]: >5 | Emax [2, 3]: > 75% | hS1P1 cAMP pEC50 [2, 5]: >6.5

CC(C)n1nnc2cc(-c3noc(-c4ccccc4N)n3)ccc21 [Compound 576, 2-{3-[1-(propan-2-yl)-1H-1,2,3-benzotriazol-5-yl]-1,2,4-oxadiazol-5-yl}aniline]
Emax [1, 3]: < 75% | hS1P1 B-arrestin2 pEC50 [1, 4]: >5 | Emax [2, 3]: > 75% | hS1P1 cAMP pEC50 [2, 5]: >6.5

CC(C)(O)Cn1nnc2cc(-c3nc(-c4cccc5cc[nH]c45)no3)ccc21 [Compound 577, 1-{5-[3-(1H-indol-7-yl)-1,2,4-oxadiazol-5-yl]-1H-1,2,3-benzotriazol-1-yl}-2-methylpropan-2-ol]
Emax [1, 3]: < 75% | hS1P1 B-arrestin2 pEC50 [1, 4]: >5 | Emax [2, 3]: < 75% | hS1P1 cAMP pEC50 [2, 5]: <6.5

N#Cc1cc(-c2nnc(-c3ccc4c(c3)ncn4CCO)o2)ccc1NCC(F)F [Compound 578, 2-[(2,2-difluoroethyl)amino]-5-{5-[1-(2-hydroxyethyl)-1H-1,3-benzodiazol-5-yl]-1,3,4-oxadiazol-2-yl}benzonitrile]
hS1P1 B-arrestin2 pEC50 [1, 4]: <5 | hS1P1 cAMP pEC50 [2, 5]: <6.5

COc1cc(NC(C)=O)ccc1-c1nc(-c2ccncc2)no1 [Compound 582, N-{3-methoxy-4-[3-(pyridin-4-yl)-1,2,4-oxadiazol-5-yl]phenyl}acetamide]
hS1P1 B-arrestin2 pEC50 [1, 4]: <5 | hS1P1 cAMP pEC50 [2, 5]: <6.5

CCOP(=O)(Cc1ccc(-c2noc(-c3ccc4c(c3)nnn4C(C)C)n2)cc1)OCC [Compound 583, diethyl [(4-{5-[1-(propan-2-yl)-1H-1,2,3-benzotriazol-5-yl]-1,2,4-oxadiazol-3-yl}phenyl)methyl]phosphonate]
hS1P1 B-arrestin2 SPAN [1, 3]: <75 | hS1P1 cAMP SPAN [2, 3]: <75

CNc1ccccc1-c1coc(-c2ccc3c(c2)nnn3C(C)C)n1 [Compound 587, N-methyl-2-{2-[1-(propan-2-yl)-1H-1,2,3-benzotriazol-5-yl]-1,3-oxazol-4-yl}aniline]
Emax [1, 3]: < 75% | hS1P1 B-arrestin2 pEC50 [1, 4]: <5 | Emax [2, 3]: < 75% | hS1P1 cAMP pEC50 [2, 5]: <6.5

CCC1CC(=O)c2ccc(-c3nc(-c4cccnc4)no3)cc2O1 (centres unmarked) [Compound 588, 2-ethyl-7-[3-(pyridin-3-yl)-1,2,4-oxadiazol-5-yl]-3,4-dihydro-2H-1-benzopyran-4-one]
hS1P1 B-arrestin2 pEC50 [1, 4]: <5 | hS1P1 cAMP pEC50 [2, 5]: <6.5

CC(C)(O)Cn1nnc2cc(-c3nc(-c4ccc5nonc5c4)no3)ccc21 [Compound 590, 1-{5-[3-(2,1,3-benzoxadiazol-5-yl)-1,2,4-oxadiazol-5-yl]-1H-1,2,3-benzotriazol-1-yl}-2-methylpropan-2-ol]
hS1P1 B-arrestin2 pEC50 [1, 4]: <5 | hS1P1 cAMP pEC50 [2, 5]: <6.5

CCC1(CC)CC(=O)c2cc(-c3nc(-c4cccs4)no3)ccc2N1 [Compound 591, 2,2-diethyl-6-(3-(thiophen-2-yl)-1,2,4-oxadiazol-5-yl)-2,3-dihydroquinolin-4(1H)-one]
hS1P1 B-arrestin2 pEC50 [1, 4]: >5 | hS1P1 cAMP pEC50 [2, 5]: >6.5

Cc1ccccc1-c1nc(-c2ccc3c(c2)nnn3CC(C)(C)O)no1 [Compound 593, 2-methyl-1-(5-(5-(o-tolyl)-1,2,4-oxadiazol-3-yl)-1H-benzo[d][1,2,3]triazol-1-yl)propan-2-ol]
Emax [1, 3]: > 75% | EC50 ([1]; β-arrestin2 recruitment, S1P1 CHO-K1 cells, read-out: hS1P1 B-arrestin2 pEC50 (converted)): < 10 µM | Emax [2, 3]: > 75% | EC50 ([2]; inhibition of cAMP production, S1P1 CHO-K1 cells, read-out: hS1P1 cAMP pEC50 (converted)): < 0.316 µM

CCC1(CC)CC(=O)c2cc(-c3ncc(-c4ccccc4OC)cn3)ccc2O1 [Compound 594, 2,2-diethyl-6-(5-(2-methoxyphenyl)pyrimidin-2-yl)chroman-4-one]
hS1P1 B-arrestin2 pEC50 [1, 4]: >5 | hS1P1 cAMP pEC50 [2, 5]: >6.5

CC(C)Oc1ccc(-c2ncc(-c3ccc4c(c3)nnn4C(C)C)cn2)cc1C#N [Compound 595, 2-isopropoxy-5-(5-(1-isopropyl-1H-benzo[d][1,2,3]triazol-5-yl)pyrimidin-2-yl)benzonitrile]
hS1P1 B-arrestin2 pEC50 [1, 4]: >5 | hS1P1 cAMP pEC50 [2, 5]: >6.5

CC(C)Nc1ccc(-c2ncc(-c3ccc4c(c3)nnn4C(C)C)cn2)cc1C#N [Compound 596, 5-(5-(1-isopropyl-1H-benzo[d][1,2,3]triazol-5-yl)pyrimidin-2-yl)-2-(isopropylamino)benzonitrile]
hS1P1 B-arrestin2 pEC50 [1, 4]: >5 | hS1P1 cAMP pEC50 [2, 5]: >6.5

Cc1cnccc1-c1noc(-c2ccc3c(c2)nnn3CC(C)(C)O)n1 [Compound 597, 2-methyl-1-{5-[3-(3-methylpyridin-4-yl)-1,2,4-oxadiazol-5-yl]-1H-1,2,3-benzotriazol-1-yl}propan-2-ol]
hS1P1 B-arrestin2 pEC50 [1, 4]: >5 | hS1P1 cAMP pEC50 [2, 5]: >6.5

CNc1ccccc1-c1nc(-c2ccc3c(c2)nnn3C(C)C)no1 [Compound 599, N-methyl-2-{3-[1-(propan-2-yl)-1H-1,2,3-benzotriazol-5-yl]-1,2,4-oxadiazol-5-yl}aniline]
Emax [1, 3]: > 75% | hS1P1 B-arrestin2 pEC50 [1, 4]: >5 | Emax [2, 3]: < 75% | hS1P1 cAMP pEC50 [2, 5]: >6.5

Cc1ccccc1-c1cc(-c2ccc3c(c2)nnn3C(C)C)c[nH]1 [Compound 601, 5-[5-(2-methylphenyl)-1H-pyrrol-3-yl]-1-(propan-2-yl)-1H-1,2,3-benzotriazole]
hS1P1 B-arrestin2 pEC50 [1, 4]: >5 | hS1P1 cAMP pEC50 [2, 5]: <6.5
